According to ChEMBL document CHEMBL1649243, “TEM-168, a heretofore laboratory-derived TEM beta-lactamase variant found in an Escherichia coli clinical isolate” (2009):
Values after ≈ are worked out from the molar mass of the structure shown.

Legend:
Assay type in all cases: functional
Escherichia coli [1] = assay: Antimicrobial activity against Escherichia coli NO8-1503 harboring blaTEM-168 gene by broth microdilution method
Escherichia coli [2] = assay: Antimicrobial activity against Escherichia coli DH10B transformant harboring blaTEM-168 gene by disk diffusion method in presence of clavulanic acid
Escherichia coli [3] = assay: Antimicrobial activity against Escherichia coli DH10B by broth microdilution method
Escherichia coli [4] = assay: Antimicrobial activity against Escherichia coli NO8-1503 harboring blaTEM-168 gene by disk diffusion method in presence of clavulanic acid
Escherichia coli [5] = assay: Antimicrobial activity against Escherichia coli DH10B by disk diffusion method
Escherichia coli [6] = assay: Antimicrobial activity against Escherichia coli DH10B by disk diffusion method in presence of clavulanic acid
Escherichia coli [7] = assay: Antimicrobial activity against Escherichia coli NO8-1503 harboring blaTEM-168 gene by disk diffusion method
Escherichia coli [8] = assay: Antimicrobial activity against Escherichia coli DH10B transformant harboring blaTEM-168 gene by broth microdilution method
Escherichia coli [9] = assay: Antimicrobial activity against Escherichia coli DH10B transformant harboring blaTEM-168 gene by disk diffusion method
Escherichia coli [10] = assay: Antimicrobial activity against Escherichia coli DH10B by broth microdilution method in presence of clavulanic acid
Escherichia coli [11] = assay: Antimicrobial activity against Escherichia coli NO8-1503 harboring blaTEM-168 gene by broth microdilution method in presence of clavulanic acid
Escherichia coli [12] = assay: Antimicrobial activity against Escherichia coli DH10B transformant harboring blaTEM-168 gene by broth microdilution method in presence of clavulanic acid
Escherichia coli [13] = assay: Antimicrobial activity against Escherichia coli NO8-1503 harboring blaTEM-168 gene by Etest
Escherichia coli [14] = assay: Antimicrobial activity against Escherichia coli DH10B transformant harboring blaTEM-168 gene by Etest
Escherichia coli [15] = assay: Antimicrobial activity against Escherichia coli DH10B by Etest
Escherichia coli [16] = assay: Antimicrobial activity against Escherichia coli DH10B transformant harboring blaTEM-168 gene by Etest in presence of clavulanic acid
Escherichia coli [17] = assay: Antimicrobial activity against Escherichia coli NO8-1503 harboring blaTEM-168 gene by Etest in presence of clavulanic acid
Escherichia coli [18] = assay: Antimicrobial activity against Escherichia coli DH10B by Etest in presence of clavulanic acid
Escherichia coli [19] = assay: Antimicrobial activity against Escherichia coli NO8-1503 harboring blaTEM-168 gene by Etest in presence of Tazobactam
Escherichia coli [20] = assay: Antimicrobial activity against Escherichia coli DH10B by Etest in presence of Tazobactam
Escherichia coli [21] = assay: Antimicrobial activity against Escherichia coli DH10B transformant harboring blaTEM-168 gene by Etest in presence of Tazobactam

SMILES | MIC (Escherichia coli [1]) [µg/mL] | inhibition zone (IZ) (Escherichia coli [2]) [mm] | MIC (Escherichia coli [3]) [µg/mL] | inhibition zone (IZ) (Escherichia coli [4]) [mm] | inhibition zone (IZ) (Escherichia coli [5]) [mm] | inhibition zone (IZ) (Escherichia coli [6]) [mm] | inhibition zone (IZ) (Escherichia coli [7]) [mm] | MIC (Escherichia coli [8]) [µg/mL] | inhibition zone (IZ) (Escherichia coli [9]) [mm] | MIC (Escherichia coli [10]) [µg/mL] | MIC (Escherichia coli [11]) [µg/mL] | MIC (Escherichia coli [13]) [µg/mL] | MIC (Escherichia coli [14]) [µg/mL] | MIC (Escherichia coli [15]) [µg/mL] | MIC (Escherichia coli [16]) [µg/mL] | MIC (Escherichia coli [17]) [µg/mL] | MIC (Escherichia coli [18]) [µg/mL] | further results
COCC1=C(C(=O)O)N2C(=O)[C@@H](NC(=O)/C(=N\OC)c3csc(N)n3)[C@H]2SC1 [CEFPODOXIME] | 8 (≈ 18.7 µM) | 16 | 1 (≈ 2.34 µM) | 15 | 27 | 21 | 20 | 4 (≈ 9.36 µM) | 20 | ≤ 0.125 | 0.5 |  |  |  |  |  |  | MIC (Escherichia coli [12]): 0.25 µg/mL
CO/N=C(\C(=O)N[C@@H]1C(=O)N2C(C(=O)[O-])=C(C[N+]3(C)CCCC3)CS[C@H]12)c1csc(N)n1 | 8 (≈ 16.6 µM) |  |  |  |  |  |  | 4 (≈ 8.32 µM) |  |  |  | 2 (≈ 4.16 µM) | 2 (≈ 4.16 µM) |  |  |  |  | 
CO/N=C(\C(=O)N[C@@H]1C(=O)N2C(C(=O)O)=C(COC(C)=O)CS[C@H]12)c1csc(N)n1 [CEFOTAXIME] | ≤ 0.25 | 30 | ≤ 0.25 | 24 | 29 | 33 | 23 |  | 26 | ≤ 0.12 | ≤ 0.12 | 0.25 (≈ 0.549 µM) | 0.25 (≈ 0.549 µM) | < 0.25 | 0.094 | 0.094 | 0.094 | 
CC(C)(O/N=C(\C(=O)N[C@@H]1C(=O)N2C(C(=O)[O-])=C(C[n+]3ccccc3)CS[C@H]12)c1csc(N)n1)C(=O)O [CEFTAZIDIME] | 4 (≈ 7.32 µM) | 10 | ≤ 0.25 | 11 | 16 | 18 | 8 | 4 (≈ 7.32 µM) | 8 | 0.25 | 2 | 3 (≈ 5.49 µM) | 3 (≈ 5.49 µM) | 1 (≈ 1.83 µM) | 1 | 0.75 | 0.38 | MIC (Escherichia coli [12]): 1 µg/mL
CO[C@@]1(NC(=O)Cc2cccs2)C(=O)N2C(C(=O)O)=C(COC(N)=O)CS[C@@H]21 [CEFOXITIN] |  |  |  |  |  |  |  |  |  |  |  | 12 (≈ 28.1 µM) | 6 (≈ 14 µM) | 8 (≈ 18.7 µM) |  |  |  | 
CC1(C)S[C@@H]2[C@H](NC(=O)[C@H](N)c3ccc(O)cc3)C(=O)N2[C@H]1C(=O)O [AMOXICILLIN] |  |  |  |  |  |  |  |  |  |  |  |  |  |  | 64 | 32 | 3 | 
CCN1CCN(C(=O)N[C@@H](C(=O)N[C@@H]2C(=O)N3[C@@H]2SC(C)(C)[C@@H]3C(=O)O)c2ccccc2)C(=O)C1=O [PIPERACILLIN] |  |  |  |  |  |  |  |  |  |  |  |  |  |  |  |  |  | MIC (Escherichia coli [19]): > 256 µg/mL; MIC (Escherichia coli [20]): 1.5 µg/mL; MIC (Escherichia coli [21]): > 256 µg/mL
